Converted amounts (≈) assume the structure as drawn. Like-named read-outs stand apart in the source and are kept apart here.
How the values were obtained:
Format in all cases: cell-based
Bacilus subtilis PCI 219 = experiment: Antibacterial spectra, MIC; details: Bacillus subtilis, PCI219
[1] = tested on: Staphylococcus aureus 209 P; experiment: Antibacterial spectra, MIC
[2] = tested on: S. aureus IID 670 (Terajima); experiment: Antibacterial spectra, MIC; details: Staphylococcus aureus, IID670
S. aureus Smith = experiment: Antibacterial spectra, MIC; details: Staphylococcus aureus
S. epidermidis IID 866 = experiment: Antibacterial spectra, MIC; details: Staphylococcus epidermidis, IID866
E. coli ML 4707 = experiment: Antibacterial spectra, MIC; details: Escherichia coli, ML4707; 10^6 cells/ml; Gram -
Protocol: (§1) The antibacterial test was carried out according to the method designated by Japan Society of Chemotherapy.

E. faecalis IID 682 = experiment: Antibacterial spectra, MIC; details: Enterococcus faecalis, IID682; 10^6 cells/ml; Gram +
Protocol: as §1

[3] = tested on: Proteus vulgaris IFO 3167; experiment: Antibacterial spectra, MIC; details: IFO3167, 10^6 cells/ml, Gram -
Protocol: as §1

Shigella sonnei IID 969 = experiment: Antibacterial spectra, MIC; details: IID969, 10^6 cells/ml, Gram -
Protocol: as §1

[4] = tested on: Streptococcus pyogenes (S-8); experiment: Antibacterial spectra, MIC; details: 10^6 cells/ml, Gram +
Protocol: as §1

S. pyogenes IID 692 = experiment: Antibacterial spectra, MIC; details: Streptococcus pyogenes, IID692
S. pneumoniae IID 552 = experiment: Antibacterial spectra, MIC; details: Streptococcus pneumoniae, IID552
[5] = tested on: Escherichia coli NIHJ JC-2; experiment: Antibacterial spectra, MIC; details: NIHJJC2
E. coli ATCC 10536 = experiment: Antibacterial spectra, MIC; details: Escherichia coli, ATCC10536
P. mirabilis IID 994 = experiment: Antibacterial spectra, MIC; details: Proteus mirabilis, IID994
[6] = tested on: Morganella morganii IID 602; experiment: Antibacterial spectra, MIC; details: IID602
[7] = tested on: Klebsiella pneumoniae KY(GN)6445; experiment: Antibacterial spectra, MIC
K. pneumoniae 1-220S = experiment: Antibacterial spectra, MIC; details: Klebsiella pneumoniae, 1220S
[8] = tested on: Enterobacter cloacae IID 977; experiment: Antibacterial spectra, MIC; details: IID977
[9] = tested on: Citrobacter freundii IID 976; experiment: Antibacterial spectra, MIC
[10] = tested on: Serratia marcescens IID 618; experiment: Antibacterial spectra, MIC; details: IID618
[11] = tested on: Salmonella enteritidis IID 604; experiment: Antibacterial spectra, MIC; details: Salmonella enterica
[12] = tested on: Pseudomonas aeruginosa V-1; experiment: Antibacterial spectra, MIC; details: V1
P. aeruginosa IFO 12689 = experiment: Antibacterial spectra, MIC; details: Pseudomonas aeruginosa, IFO12689
P. aeruginosa IID 1210 = experiment: Antibacterial spectra, MIC; details: Pseudomonas aeruginosa, IID1210; 10^6 cells/ml; Gram -; read-out: MIC
P. cepacia GIFU 518 = experiment: Antibacterial spectra, MIC; details: Burkholderia cepacia, GIFU518
P. maltophilia GIFU 2491 = experiment: Antibacterial spectra, MIC; details: Stenotrophomonas maltophilia, GIFU2491
[13] = tested on: Yersinia enterocolitica IID 981; experiment: Antibacterial spectra, MIC; details: IID981
[14] = tested on: Acinetobacter anitratus IID 876; experiment: Antibacterial spectra, MIC; details: Acinetobacter calcoaceticus, IID876
[15] = tested on: Alcaligenes faecalis 0114002; experiment: Antibacterial spectra, MIC
[16] = tested on: Bacteroides fragilis GM 7000; experiment: Antibacterial spectra, MIC; details: GM7000
B. fragilis 0558 = experiment: Antibacterial spectra, MIC; details: Bacteroides fragilis
B. fragilis 25285 = experiment: Antibacterial spectra, MIC; details: Bacteroides fragilis
B. distasonis 8503 = experiment: Antibacterial spectra, MIC; details: Parabacteroides distasonis
[17] = tested on: B. thetaiotaomicron (0661); experiment: Antibacterial spectra, MIC; details: Bacteroides thetaiotaomicron
B. vulgatus KYA 29327 = experiment: Antibacterial spectra, MIC; details: Phocaeicola vulgatus, KYA29327
[18] = tested on: Fusobacterium mortiferum 4249; experiment: Antibacterial spectra, MIC
F. necrophorum S-45 = experiment: Antibacterial spectra, MIC; details: Fusobacterium necrophorum, S45
F. varium KYA 8501 = experiment: Antibacterial spectra, MIC; details: Fusobacterium varium, KYA8501
[19] = tested on: Eubacterium lentum GAI 5242; experiment: Antibacterial spectra, MIC; details: Eggerthella lenta, GAI5242
[20] = tested on: Propionibacterium acens 11828; experiment: Antibacterial spectra, MIC
[21] = tested on: Peptococcus magnus KY 017; experiment: Antibacterial spectra, MIC; details: Finegoldia magna, KY017
C. perfringens KYA 13123 = experiment: microbe, parasite or virus in culture; details: Clostridium perfringens, KYA13123
C. ramosum = experiment: Antibacterial spectra, MIC; details: Thomasclavelia ramosa
[22] = tested on: Peptostreptococcus anaerobius KYA 27337; experiment: Antibacterial spectra, MIC; details: KYA27337
Pst. micros UPI 5464-1 = experiment: Antibacterial spectra, MIC; details: Parvimonas micra, UPI54641
[23] = tested on: Veillonella parvula KYA 10790; experiment: Antibacterial spectra, MIC; details: KYA10790
[24] = 10^6 cells/ml, Gram -, read-out: MIC

CCNCC1CCN(c2c(F)cc3c(=O)c(C(=O)O)cn(C4CC4)c3c2OC)C1 (stereo not shown) [Exp. 9, 1-cyclopropyl-7-(3-ethylaminomethyl-1-pyrrolidinyl)-6-fluoro-1,4-dihydro-8-methoxy-4-oxo-3-quinolinecarboxylic acid]
MIC (Bacilus subtilis PCI 219): 0.0063 µg/mL (≈ 0.0156 µM)
MIC [1]: 0.0125 µg/mL (≈ 0.031 µM)
MIC [2]: 0.0125 µg/mL (≈ 0.031 µM)
MIC (S. aureus Smith): 0.0125 µg/mL (≈ 0.031 µM)
MIC (S. epidermidis IID 866): 0.025 µg/mL (≈ 0.062 µM)
MIC (E. coli ML 4707): 0.025 µg/mL (≈ 0.062 µM)
MIC (E. faecalis IID 682): 0.05 µg/mL
MIC [3]: 0.025 µg/mL (≈ 0.062 µM)
MIC (Shigella sonnei IID 969): 0.025 µg/mL (≈ 0.062 µM)
MIC [4]: 0.025 µg/mL
MIC (S. pyogenes IID 692): 0.05 µg/mL (≈ 0.124 µM)
MIC (S. pneumoniae IID 552): 0.025 µg/mL (≈ 0.062 µM)
MIC [5]: 0.0063 µg/mL (≈ 0.0156 µM)
MIC (E. coli ATCC 10536): 0.025 µg/mL (≈ 0.062 µM)
MIC (P. mirabilis IID 994): 0.025 µg/mL (≈ 0.062 µM)
MIC [6]: 0.2 µg/mL (≈ 0.496 µM)
MIC [7]: 0.05 µg/mL (≈ 0.124 µM)
MIC (K. pneumoniae 1-220S): 0.1 µg/mL (≈ 0.248 µM)
MIC [8]: 0.1 µg/mL (≈ 0.248 µM)
MIC ([9]; IID976, 10^6 cells/ml, Gram -, read-out: MIC): 0.055 µg/mL (≈ 0.136 µM)
MIC [10]: 0.1 µg/mL (≈ 0.248 µM)
MIC [11]: 0.05 µg/mL (≈ 0.124 µM)
MIC [12]: 0.39 µg/mL (≈ 0.967 µM)
MIC (P. aeruginosa IFO 12689; [24]): 1.56 µg/mL (≈ 3.87 µM)
MIC (P. aeruginosa IID 1210): 6.25 µg/mL (≈ 15.5 µM)
MIC (P. cepacia GIFU 518): 0.78 µg/mL (≈ 1.93 µM)
MIC (P. maltophilia GIFU 2491): 0.2 µg/mL (≈ 0.496 µM)
MIC [13]: 0.1 µg/mL (≈ 0.248 µM)
MIC [14]: 0.05 µg/mL (≈ 0.124 µM)
MIC [15]: 0.78 µg/mL (≈ 1.93 µM)
MIC [16]: 0.1 µg/mL (≈ 0.248 µM)
MIC (B. fragilis 0558): 0.1 µg/mL (≈ 0.248 µM)
MIC (B. fragilis 25285): 0.1 µg/mL (≈ 0.248 µM)
MIC (B. distasonis 8503): 0.78 µg/mL (≈ 1.93 µM)
MIC [17]: 0.78 µg/mL (≈ 1.93 µM)
MIC (B. vulgatus KYA 29327): 0.39 µg/mL (≈ 0.967 µM)
MIC [18]: 0.2 µg/mL (≈ 0.496 µM)
MIC (F. necrophorum S-45): 0.2 µg/mL (≈ 0.496 µM)
MIC (F. varium KYA 8501; [24]): 1.56 µg/mL (≈ 3.87 µM)
MIC [19]: 0.1 µg/mL (≈ 0.248 µM)
MIC ([20]; 10^6 cells/ml, Gram +, read-out: MIC): 1.56 µg/mL (≈ 3.87 µM)
MIC [21]: ≤ 0.05 µg/mL
MIC (C. perfringens KYA 13123): ≤ 0.05 µg/mL
MIC (C. ramosum): 0.2 µg/mL (≈ 0.496 µM)
MIC [22]: ≤ 0.05 µg/mL
MIC (Pst. micros UPI 5464-1): 0.39 µg/mL (≈ 0.967 µM)
MIC [23]: 0.39 µg/mL (≈ 0.967 µM)

CNCC1CCN(c2c(F)cc3c(=O)c(C(=O)O)cn(C4CC4)c3c2OC)C1 (stereo not shown) [Exp. 8, 1-cyclopropyl-6-fluoro-1,4-dihydro-8-methoxy-7-(3-methylaminomethyl-1-pyrrolidinyl)-4-oxo-3-quinolinecarboxylic acid]
MIC (Bacilus subtilis PCI 219): 0.025 µg/mL (≈ 0.0642 µM)
MIC [1]: 0.05 µg/mL (≈ 0.128 µM)
MIC [2]: 0.05 µg/mL (≈ 0.128 µM)
MIC (S. aureus Smith): 0.05 µg/mL (≈ 0.128 µM)
MIC (S. epidermidis IID 866): 0.05 µg/mL (≈ 0.128 µM)
MIC (E. coli ML 4707): 0.05 µg/mL (≈ 0.128 µM)
MIC (E. faecalis IID 682): 0.05 µg/mL
MIC [3]: 0.05 µg/mL (≈ 0.128 µM)
MIC (Shigella sonnei IID 969): 0.05 µg/mL (≈ 0.128 µM)
MIC [4]: 0.05 µg/mL
MIC (S. pyogenes IID 692): 0.05 µg/mL (≈ 0.128 µM)
MIC (S. pneumoniae IID 552): 0.05 µg/mL (≈ 0.128 µM)
MIC [5]: 0.025 µg/mL (≈ 0.0642 µM)
MIC (E. coli ATCC 10536): 0.05 µg/mL (≈ 0.128 µM)
MIC (P. mirabilis IID 994): 0.05 µg/mL (≈ 0.128 µM)
MIC [6]: 0.39 µg/mL (≈ 1 µM)
MIC [7]: 0.05 µg/mL (≈ 0.128 µM)
MIC (K. pneumoniae 1-220S): 0.1 µg/mL (≈ 0.257 µM)
MIC [8]: 0.2 µg/mL (≈ 0.514 µM)
MIC ([9]; IID976): 0.05 µg/mL (≈ 0.128 µM)
MIC [10]: 0.2 µg/mL (≈ 0.514 µM)
MIC [11]: 0.1 µg/mL (≈ 0.257 µM)
MIC [12]: 0.78 µg/mL (≈ 2 µM)
MIC (P. aeruginosa IFO 12689): 3.13 µg/mL (≈ 8.04 µM)
MIC (P. aeruginosa IID 1210): 12.5 µg/mL (≈ 32.1 µM)
MIC (P. cepacia GIFU 518; [24]): 1.56 µg/mL (≈ 4.01 µM)
MIC (P. maltophilia GIFU 2491): 0.39 µg/mL (≈ 1 µM)
MIC [13]: 0.1 µg/mL (≈ 0.257 µM)
MIC [14]: 0.2 µg/mL (≈ 0.514 µM)
MIC [15, 24]: 1.56 µg/mL (≈ 4.01 µM)
MIC [16]: 0.39 µg/mL (≈ 1 µM)
MIC (B. fragilis 0558): 0.39 µg/mL (≈ 1 µM)
MIC (B. fragilis 25285): 0.39 µg/mL (≈ 1 µM)
MIC (B. distasonis 8503): 3.13 µg/mL (≈ 8.04 µM)
MIC [17]: 3.13 µg/mL (≈ 8.04 µM)
MIC (B. vulgatus KYA 29327): 3.13 µg/mL (≈ 8.04 µM)
MIC [18]: 0.39 µg/mL (≈ 1 µM)
MIC (F. necrophorum S-45): 0.39 µg/mL (≈ 1 µM)
MIC (F. varium KYA 8501): 3.13 µg/mL (≈ 8.04 µM)
MIC [19]: 0.2 µg/mL (≈ 0.514 µM)
MIC [20]: 0.78 µg/mL (≈ 2 µM)
MIC [21]: ≤ 0.05 µg/mL
MIC (C. perfringens KYA 13123): 0.2 µg/mL (≈ 0.514 µM)
MIC (C. ramosum): 0.39 µg/mL (≈ 1 µM)
MIC [22]: 0.2 µg/mL (≈ 0.514 µM)
MIC (Pst. micros UPI 5464-1): 0.39 µg/mL (≈ 1 µM)
MIC [23]: 0.39 µg/mL (≈ 1 µM)

— patent US5043450A, “8-alkoxyquinolonecarboxylic acid and salts thereof” (priority 1986, dated 1991)
